Reference: patent US9657312B2, “Replication competent pseudo-type retrovirus vector system” (Inje University Industry-Academic Cooperation Foundation, priority 2012, dated 2017)

System: U-87 MG cells
Test: MTT assay of cytotoxicity of vector-infected cells treated with GCV
Type: cell-based, human
Conditions: normal (non-infected) cells
Procedure: In order to measure a degree of cytotoxicity of the cells infected with the spRCR-TK vector when treated with GCV in vitro, MTT assay was carried out. First, a vector carrying a therapeutic gene, TK, instead of a GFP gene of the Env vector was prepared. Then, the 293T cells were transfected with the prepared vector and a Gag-pol vector, so as to manufacture the spRCR-TK vector. Then, the U-87 MG cells were infected with the virus of the spRCR-TK vector, and maintained for 14 days. Afterwards, the infected cells and non-infected cells were inoculated into a 96-well plate. […] The GCV treatment period was divided as the 1st, 2nd, 3rd, and 4th day, to perform MTT assay.

Nc1nc(O)c2ncn(COC(CO)CO)c2n1 [GCV, Ganciclovir]
GCV concentration from which normal cells show cytotoxicity: ≥ 70 µg/mL
